Experimental data: publication PMC7073229, “Novel Quinoline Compounds Active in Cancer Cells through Coupled DNA Methyltransferase Inhibition and Degradation” (Cancers, 2020)
Where two headings read alike, the source gives them in different places.

Experiments:
[1] = system: MCF-7 human breast adenocarcinoma; experiment: Antiproliferative activity, MTT; assay type: cell-based; conditions: MCF7, 48 h treatment, read-out: Antiproliferative Activity (IC50 ± SD) MCF-7
Outline: (§1)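 IC50 values derive from nonlinear curve fitting of MTT-measured proliferation after 48 h of exposure to 0.01–100 μM compound. Early-passage cells in exponential growth were cultured in RPMI 1640 containing 10% FBS, with DMSO-exposed cells serving as control.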

[2] = system: M14 human melanoma; experiment: Antiproliferative activity, MTT; assay type: cell-based; conditions: 48 h treatment, read-out: Antiproliferative Activity (IC50 ± SD) M14
Outline: as §1

[3] = system: HL60 APL cells; experiment: Antiproliferative activity, MTT; assay type: cell-based; conditions: Homo sapiens, HL-60, 48 h treatment, read-out: Antiproliferative Activity (IC50 ± SD) HL60
Outline: as §1

[4] = system: U937 AML cells; experiment: Antiproliferative activity, MTT; assay type: cell-based; conditions: Homo sapiens, U-937, 48 h treatment, read-out: Antiproliferative Activity (IC50 ± SD) U937
Outline: as §1

[5] = system: H1299 human non-small cell lung carcinoma; experiment: Antiproliferative activity, MTT; assay type: cell-based; conditions: 48 h treatment, read-out: Antiproliferative Activity (IC50 ± SD) H1299
Outline: as §1

[6] = biological target: T1, C-terminal catalytic domain of human DNMT3A (hDNMT3A) (Homo sapiens, UniProt Q9Y6K1); experiment: DNMT3A restriction-based fluorescence assay; assay type: biochemical; conditions: for EC50: mean of at least two independent experiments, read-out: Enzyme Inhibition (EC50 ± SD) hDNMT3A
T1 construct: the C-terminal catalytic domain of human DNMT3A (hDNMT3A)
T1 sequence (Q9Y6K1 634-912 limits assumed): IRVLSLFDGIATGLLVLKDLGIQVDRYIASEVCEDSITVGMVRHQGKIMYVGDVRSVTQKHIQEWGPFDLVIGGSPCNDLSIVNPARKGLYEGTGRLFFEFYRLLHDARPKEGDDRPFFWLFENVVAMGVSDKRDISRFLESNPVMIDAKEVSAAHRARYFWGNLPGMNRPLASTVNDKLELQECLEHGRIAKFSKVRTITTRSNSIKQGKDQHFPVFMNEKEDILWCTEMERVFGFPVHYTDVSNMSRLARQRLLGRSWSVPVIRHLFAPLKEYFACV
Method: DNMT3A enzyme inhibition was adapted from the restriction-based fluorescence assay protocol described in Ceccaldi et al.. Briefly, a biotin-labelled oligonucleotide at the 5’ end is hybridized to his complementary strand labelled at the 3’ end with 6-carboxyfluorescein. The DNA duplex containing only one single CpG site overlapping with a restriction site of a methylation sensitive restriction enzyme is transferred in the wells coated with avidin. The methylation reaction is performed by adding human C-terminal DNMT3A at the final concentration of 4 ng/µL in a total volume of 50 µL in the presence of the inhibitors at various concentrations and the co-substrate SAM at the final concentration of 20 µM. The plate was incubated for 1 h at 37 °C, washed, and added with the methylation sensitive restriction enzyme HpyCH4IV, incubated for 1 h further at 37 °C, washed and the fluorescence measured with a PerkinElmer Envision Multilabel Plate Reader. The data are expressed as percentage of inhibition vs. log concentration (M). Data are normalized referring to the “restriction control” (wells coated with labelled duplex not treated nor exposed to DNMT3A, but only cleaved by HpyCH4IV) as the maximum of inhibition (100%) and to the “DMSO control” (wells coated with labelled duplex but treated just with 0.1% DMSO exposed to DNMT3A and then to HpyCH4IV) as the minimum of inhibition (0%; total methylation).

[7] = biological target: T2, DNMT3A protein (Homo sapiens, UniProt Q9Y6K1); experiment: Western blot of DNMT3A protein level in HCT116 cells; assay type: cell-based; conditions: 24 h
T2 construct: endogenous in cells; host or cells: HCT116
T2 sequence (Q9Y6K1 whole entry, looked up): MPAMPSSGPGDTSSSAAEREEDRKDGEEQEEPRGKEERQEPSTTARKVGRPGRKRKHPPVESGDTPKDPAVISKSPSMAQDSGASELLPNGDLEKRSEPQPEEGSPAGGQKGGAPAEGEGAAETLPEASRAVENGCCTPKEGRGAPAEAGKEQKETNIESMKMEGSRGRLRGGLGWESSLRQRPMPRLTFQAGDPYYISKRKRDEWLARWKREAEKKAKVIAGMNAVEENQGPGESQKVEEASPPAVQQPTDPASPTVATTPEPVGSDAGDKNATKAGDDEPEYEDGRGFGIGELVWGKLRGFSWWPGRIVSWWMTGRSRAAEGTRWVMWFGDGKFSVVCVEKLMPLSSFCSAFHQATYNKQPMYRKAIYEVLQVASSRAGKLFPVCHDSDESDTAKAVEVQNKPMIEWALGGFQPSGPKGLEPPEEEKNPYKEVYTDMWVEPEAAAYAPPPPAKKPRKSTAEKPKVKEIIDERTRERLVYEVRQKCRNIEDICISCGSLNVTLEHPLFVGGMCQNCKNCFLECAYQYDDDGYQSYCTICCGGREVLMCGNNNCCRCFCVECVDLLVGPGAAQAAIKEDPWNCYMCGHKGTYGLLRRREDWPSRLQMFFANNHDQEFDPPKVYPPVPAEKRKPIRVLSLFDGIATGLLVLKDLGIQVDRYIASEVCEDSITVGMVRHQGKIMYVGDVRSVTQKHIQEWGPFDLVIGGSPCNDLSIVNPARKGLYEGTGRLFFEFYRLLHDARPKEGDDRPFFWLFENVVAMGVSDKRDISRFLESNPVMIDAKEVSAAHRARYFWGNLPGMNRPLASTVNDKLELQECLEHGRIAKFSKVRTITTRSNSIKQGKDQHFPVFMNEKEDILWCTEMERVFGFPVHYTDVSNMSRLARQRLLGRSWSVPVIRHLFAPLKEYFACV
Description: Cells were lysed in Laemmli buffer; subsequently the proteins were resolved by sodium dodecyl sulphate-polyacrylamide gel electrophoresis and transferred to a 0.45 µm nitrocellulose membrane (Bio-Rad Laboratories, Hercules, CA, USA). The following primary antibodies were used for immunoblotting: α-DNMT1 (Novus Biologicals, Littleton, CO, USA). α-DNMT3a (SantaCruz Bio-technologies, CA, USA) and α-GAPDH (Millipore Corp., Bedford, MA USA), used as a loading control. The immune complexes were detected with horseradish peroxidase-conjugated species-specific secondary antiserum (Bio-Rad Laboratories, Hercules, CA, USA) then by enhanced chemiluminescence reaction (Bio-Rad Laboratories, Hercules, CA, USA). Densitometric analysis of protein expression was performed by using the Fiji-Image J image processing package.

[8] = biological target: Src kinase (h) (Homo sapiens, UniProt P12931); experiment: Kinase inhibitory assay (panel); assay type: biochemical; conditions: read-out: % inhibition at 10 µM
Chain of Src kinase (h) (P12931 whole entry): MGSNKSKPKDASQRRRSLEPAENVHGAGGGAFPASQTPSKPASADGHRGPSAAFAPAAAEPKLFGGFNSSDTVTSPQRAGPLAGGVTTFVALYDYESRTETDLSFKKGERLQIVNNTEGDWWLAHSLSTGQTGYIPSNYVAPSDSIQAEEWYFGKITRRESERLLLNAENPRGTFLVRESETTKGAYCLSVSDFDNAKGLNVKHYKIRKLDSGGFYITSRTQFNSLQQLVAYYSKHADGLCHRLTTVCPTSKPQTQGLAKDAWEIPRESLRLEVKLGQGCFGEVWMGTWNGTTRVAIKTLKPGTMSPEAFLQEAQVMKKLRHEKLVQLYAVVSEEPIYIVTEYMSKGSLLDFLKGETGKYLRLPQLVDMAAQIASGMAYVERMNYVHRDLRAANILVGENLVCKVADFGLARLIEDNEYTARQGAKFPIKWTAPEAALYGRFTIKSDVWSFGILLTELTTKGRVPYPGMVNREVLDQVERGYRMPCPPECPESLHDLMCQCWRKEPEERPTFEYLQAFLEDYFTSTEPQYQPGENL
Method: Experimental procedure of kinase inhibitory assays
The test compound, reference compound or water (control) were mixed with the enzyme (for the exact amount see table below) in the appropriate buffer. Thereafter, the reaction was initiated by adding the required amount of the appropriate substrate and of ATP, and the mixture is incubated at room temperature (variable reaction time, see table below). For control basal measurements, the enzyme was omitted from the reaction mixture. Following incubation, the reaction was stopped by adding 13 mM
EDTA. After 5 min, the proper antibody labelled with europium chelate was added. After 60 more min, the fluorescence transfer was measured at λex=337 nm, λem=620 nm and λem=665 nm using a microplate reader (Envision, Perkin Elmer). The enzyme activity was determined by d ividing the signal measured at 665 nm by that measured at 620 nm (ratio). The results are expressed as a percent inhibition of the control enzyme activity. The standard inhibitory reference compound is staurosporine when not differently indicated (see tabl e below), which has been tested in each experiment at several concentrations to obtain an inhibition curve from which its IC 50 value is calculated.
• Assay volume and format: 10 µL in 384-well plate
• Compound addition: [100x] solution in solvent then [5x] solution in water • Maximum tolerable DMSO concentration: 1%

SMILES	IC50 [1]	IC50 [2]	IC50 [3]	IC50 [4]	IC50 ([5]; Homo sapiens, NCI-H1299, 48 h)	EC50 [6]	fold more potent than 4 against hDNMT3A ([6]; ratio of EC50 values vs 4)	DNMT3A protein level (western blot) ([7]; HCT116, 0.1 µM)	DNMT3A protein level (western blot) ([7]; HCT116, 1 µM)	DNMT3A protein level (western blot) with bortezomib ([7]; HCT116, 1 µM, co-treated with bortezomib 10 nM)	inhibition at 10 µM [8]	IC50 [5]
O=C(Nc1cccc(Nc2ccnc3ccccc23)c1)c1ccc(Nc2ccnc3ccccc23)cc1 [Compound 2c]	2.2 ± 0.4 µM	3.8 ± 0.7 µM	1.9 ± 0.3 µM	1.5 ± 0.1 µM	14 ± 1.8 µM	5.6 ± 1 µM	–	–	–	–	–	–
O=C(Nc1cccc(NC(=O)c2ccc(Nc3ccnc4ccccc34)cc2)c1)OCc1ccccc1 [Compound 4c]	–	4.5 ± 0.8 µM	0.3 ± 0.07 µM	1.2 ± 0.2 µM	6.9 ± 0.9 µM	6.1 ± 1 µM	3 fold	decrease	decrease	rescued	–	–
O=C(Nc1ccc(NC(=O)c2cccc(Nc3ccnc4ccccc34)c2)cc1)OCc1ccccc1 [Compound 4a]	–	69 ± 8.1 µM	0.3 ± 0.06 µM	0.5 ± 0.08 µM	45 ± 4.1 µM	> 32 µM	–	–	–	–	–	–
O=C(Nc1cccc(Nc2ccnc3ccccc23)c1)c1cccc(Nc2ccnc3ccccc23)c1 [Compound 2b]	0.3 ± 0.06 µM	4.7 ± 0.6 µM	1.6 ± 0.2 µM	1.5 ± 0.1 µM	5.3 ± 0.9 µM	–	–	–	decrease	–	94%	–
O=C(Nc1ccc(Nc2ccnc3ccccc23)cc1)c1cccc(Nc2ccnc3ccccc23)c1 [Compound 2a]	4.1 ± 0.7 µM	0.5 ± 0.08 µM	0.2 ± 0.03 µM	0.7 ± 0.09 µM	15 µM	6 ± 1 µM	–	–	–	–	94%	14.7 ± 2.3 µM
